Results taken from US20250171431A1, “HETEROCYCLIC INHIBITORS OF IGF-1R FOR TREATMENT OF DISEASE” (HORIZON THERAPEUTICS IRELAND DAC, priority 2023, published 2025).

biological target: IGF-1R (Homo sapiens (Human), UniProt P08069); experiment: Example B-1: IGF-1R Assay (PC3 cells, IGF1 stimulation, AlphaLISA); type: cell-based; settings: 200 ng/mL IGF1 stimulation, read-out: Biological Activity against IGF-1R IC50
Method in brief: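 Readout is AlphaLISA signal from lysed PC3 cells, expressed as % inhibition versus vehicle and EC80 controls and banded by IC50. Before lysis, the cells were starved of serum for 2 h, exposed to 3× serially diluted compound for 2 h, and stimulated for 30 min with 200 ng/mL IGF1 (final).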

Sequence of IGF-1R (P08069 31-1367): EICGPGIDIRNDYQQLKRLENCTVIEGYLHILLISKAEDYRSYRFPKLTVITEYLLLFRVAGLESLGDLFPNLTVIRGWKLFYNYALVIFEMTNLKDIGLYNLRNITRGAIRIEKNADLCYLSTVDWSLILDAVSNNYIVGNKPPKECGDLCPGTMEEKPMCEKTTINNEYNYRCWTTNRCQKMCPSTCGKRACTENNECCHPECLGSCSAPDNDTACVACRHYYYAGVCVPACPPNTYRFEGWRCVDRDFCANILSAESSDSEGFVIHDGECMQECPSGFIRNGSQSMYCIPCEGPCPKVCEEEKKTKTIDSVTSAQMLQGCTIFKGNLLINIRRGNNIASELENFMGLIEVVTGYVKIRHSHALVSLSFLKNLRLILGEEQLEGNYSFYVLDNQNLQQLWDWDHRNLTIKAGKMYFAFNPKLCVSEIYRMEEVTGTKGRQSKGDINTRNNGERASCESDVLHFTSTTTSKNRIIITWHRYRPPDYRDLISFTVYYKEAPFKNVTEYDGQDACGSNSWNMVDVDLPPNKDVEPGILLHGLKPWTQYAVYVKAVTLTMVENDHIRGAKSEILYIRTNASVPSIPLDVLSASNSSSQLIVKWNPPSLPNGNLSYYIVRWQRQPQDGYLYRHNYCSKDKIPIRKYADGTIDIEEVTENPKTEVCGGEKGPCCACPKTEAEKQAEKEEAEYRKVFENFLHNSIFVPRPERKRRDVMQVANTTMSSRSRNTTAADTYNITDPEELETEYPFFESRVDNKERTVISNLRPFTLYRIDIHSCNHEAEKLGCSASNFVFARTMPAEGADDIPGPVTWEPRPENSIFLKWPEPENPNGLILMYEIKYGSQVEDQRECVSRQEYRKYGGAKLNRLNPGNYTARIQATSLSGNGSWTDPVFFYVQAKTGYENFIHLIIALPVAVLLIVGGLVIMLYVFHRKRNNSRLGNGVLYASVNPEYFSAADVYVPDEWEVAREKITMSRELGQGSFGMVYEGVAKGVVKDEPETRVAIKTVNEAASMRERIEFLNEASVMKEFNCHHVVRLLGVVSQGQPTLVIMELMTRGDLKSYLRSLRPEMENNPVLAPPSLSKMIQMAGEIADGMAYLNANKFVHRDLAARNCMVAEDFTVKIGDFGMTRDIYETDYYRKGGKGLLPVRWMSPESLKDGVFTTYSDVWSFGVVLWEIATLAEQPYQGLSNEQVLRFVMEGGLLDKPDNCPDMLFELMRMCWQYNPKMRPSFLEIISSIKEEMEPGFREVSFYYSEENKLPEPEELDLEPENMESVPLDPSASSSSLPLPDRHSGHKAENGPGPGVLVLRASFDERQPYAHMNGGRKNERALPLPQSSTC

Row | SMILES | IC50 [µM]
1 | COc1cc(Nc2nccc(Nc3cnc4ccc(C5CC5)cc4c3)n2)ccc1OCCCN1CCOCC1 [Compound 103, 4-(6-cyclopropyl-3-quinolylamino)-2-[3-methoxy-4-(3-morpholinopropoxy)phenylamino]pyrimidine] | ≤ 0.5
2 | COc1cc(Nc2nccc(Nc3cnc4cc(N)ccc4c3)n2)ccc1O[C@H]1C[C@@H](N(C)C)C1 [Compound 12, 4-(7-amino-3-quinolylamino)-2-{3-methoxy-4-[(1s,3s)-3-(dimethylamino)cyclobutoxy]phenylamino}pyrimidine] | ≤ 0.5
3 | COc1cc(Nc2ncc(F)c(Nc3cc4cccc(F)c4[nH]c3=O)n2)ccc1O[C@H]1C[C@@H](N(C)C)C1 [Compound 242, 8-fluoro-3-(5-fluoro-2-{3-methoxy-4-[(1s,3s)-3-(dimethylamino)cyclobutoxy]phenyl-amino}-4-pyrimidinylamino)-1,2-dihydro-2-quinolinone] | 2 to 10
4 | COc1cc(Nc2nccc(Nc3cnc4c(c3)OCCO4)n2)ccc1O[C@H]1C[C@H](N2CCOCC2)C1 [Compound 23, 4-(2,3-dihydro-1,4-dioxa-5-aza-7-naphthylamino)-2-{3-methoxy-4-[(1r,3r)-3-morpholinocyclobutoxy]phenylamino}pyrimidine] | ≤ 0.5
5 | COc1cc(Nc2nccc(Nc3cnc4cc(F)c(F)cc4c3)n2)c(C)cc1O[C@H]1C[C@@H](N(C)C)C1 [Compound 154, N4-(6,7-difluoroquinolin-3-yl)-N2-(4-((1s,3s)-3-(dimethylamino)cyclobutoxy)-5-methoxy-2-methylphenyl)pyrimidine-2,4-diamine] | ≤ 0.5
6 | COc1cc(Nc2nccc(Nc3cnc4c(F)cc(F)cc4c3)n2)cnc1O[C@H]1C[C@@H](N(C)C)C1 [Compound 290, 4-(6,8-difluoro-3-quinolylamino)-2-{5-methoxy-6-[(1s,3s)-3-(dimethylamino)cyclobutoxy]-3-pyridylamino}pyrimidine] | ≤ 0.5
7 | COc1cc(Nc2nccc(Nc3cnc4ccccc4c3)n2)ccc1O[C@H]1C[C@H](N2CCOCC2)C1 [Compound 22, 2-{3-methoxy-4-[(1r,3r)-3-morpholinocyclobutoxy]phenylamino}-4-(3-quinolylamino)pyrimidine] | ≤ 0.5
8 | COc1cc(Nc2ncc(F)c(Nc3cnc4ccccc4c3)n2)ccc1OCCCN1CCCCC1 [Compound 431, 5-fluoro-2-[3-methoxy-4-(3-piperidinopropoxy)phenylamino]-4-(3-quinolylamino)pyrimidine] | ≤ 0.5
9 | COc1cc(Nc2nccc(Nc3cc4ccccc4[nH]c3=O)n2)ccc1O[C@H]1C[C@H](N(C)C)C1 [Compound 249, 3-(2-{3-methoxy-4-[(1r,3r)-3-(dimethylamino)cyclobutoxy]phenyl-amino}-4-pyrimidinylamino)-2(1H)-quinolinone] | ≤ 0.5
10 | COc1cc(Nc2ncc(F)c(Nc3cc4ccccc4nc3C(N)=O)n2)cnc1N1CCC(C)(O)CC1 [Compound 491, 3-{5-fluoro-2-[6-(4-hydroxy-4-methyl-1-piperidyl)-5-methoxy-3-pyridylamino]-4-pyrimidinylamino}-2-quinolinecarboxamide] | ≤ 0.5
11 | COc1cc(Nc2nccc(Nc3cnc4c(c3)C3CCC4CC3)n2)ccc1OCCCN1CCCCC1 [Compound 209] | ≤ 0.5
12 | COc1cc(Nc2nccc(Nc3cc4cccc(F)c4[nH]c3=O)n2)cnc1O[C@@H]1CCN(C)C1 [Compound 165, 3-(2-{6-[(R)-1-methyl-3-pyrrolidinyloxy]-5-methoxy-3-pyridylamino}-4-pyrimidinylamino)-8-fluoro-1,2-dihydro-2-quinolinone] | 0.5 to 2
13 | COc1nc(N2CCN(C)CC2)ccc1Nc1nccc(Nc2cnc3ccc(Cl)cc3c2)n1 [Compound 485, 4-(6-chloro-3-quinolylamino)-2-[2-methoxy-6-(4-methyl-1-piperazinyl)-3-pyridylamino]pyrimidine] | ≤ 0.5
14 | COc1cc(Nc2nccc(Nc3cnc4ccc(Cl)cc4c3)n2)ccc1O[C@H]1CC[C@@H](N(C)C)CC1 [Compound 286, 4-(6-chloro-3-quinolylamino)-2-{3-methoxy-4-[(1s,4s)-4-(dimethylamino)cyclohexyloxy]phenylamino}pyrimidine] | ≤ 0.5
15 | CN(C)CC1Cc2ccc(Nc3nccc(Nc4cc5cccc(F)c5[nH]c4=O)n3)cc2O1 (stereo not shown) [Compound 243, 3-(2-{2-[(dimethylamino)methyl]-2,3-dihydro-1-benzofuran-6-ylamino}-4-pyrimidinylamino)-8-fluoro-1,2-dihydro-2-quinolinone] | ≤ 0.5
16 | O=S1(=O)CCN(CCCOc2ccc(Nc3nccc(Nc4cnc5cc(Cl)ccc5c4)n3)cc2)CC1 [Compound 399, 4-(3-{p-[4-(7-chloro-3-quinolylamino)-2-pyrimidinylamino]phenoxy}propyl)-1λ^6,4-thiazinane-1,1-dione] | 2 to 10
17 | COc1cc(Nc2nccc(Nc3cnc4c(c3)CCC4)n2)ccc1OCCCN1CCCCC1 [Compound 194, 4-(4-aza-6-indanylamino)-2-[3-methoxy-4-(3-piperidinopropoxy)phenylamino] pyrimidine] | ≤ 0.5
18 | COc1cc(Nc2nccc(Nc3cnc4ccc(C#N)cc4c3)n2)ccc1O[C@H]1C[C@@H](N(C)C)C1 [Compound 313, 3-(2-{3-methoxy-4-[(1s,3s)-3-(dimethylamino)cyclobutoxy]phenylamino}-4-pyrimidinylamino)-6-quinolinecarbonitrile] | ≤ 0.5
19 | COc1cc(Nc2nccc(Nc3cnc4c(c3)CC(F)(F)CC4)n2)ccc1O[C@H]1C[C@H](N(C)C)C1 [Compound 81, 4-(6,6-difluoro-5,6,7,8-tetrahydro-3-quinolylamino)-2-{3-methoxy-4-[(1r,3r)-3-(dimethylamino)cyclobutoxy]phenylamino}pyrimidine] | ≤ 0.5
20 | COc1cc(Nc2nccc(Nc3cc4ccccc4[nH]c3=O)n2)ccc1OCCCN1CCCCC1 [Compound 250, 3-{2-[3-methoxy-4-(3-piperidinopropoxy)phenylamino]-4-pyrimidinylamino}-2(1H)-quinolinone] | ≤ 0.5
21 | COc1cc(Nc2nccc(Nc3cnc4cc(Br)cnc4c3)n2)ccc1O[C@H]1C[C@@H](N(C)C)C1 [Compound 316, 4-(7-bromo-1,5-diaza-3-naphthylamino)-2-{3-methoxy-4-[(1s,3s)-3-(dimethylamino)cyclobutoxy]phenylamino}pyrimidine] | ≤ 0.5
22 | Clc1ccc2cc(Nc3ccnc(Nc4ccc(OCCCN5CCOCC5)cc4)n3)cnc2c1 [Compound 410, 4-(7-chloro-3-quinolylamino)-2-[p-(3-morpholinopropoxy)phenylamino]pyrimidine] | 2 to 10

Other lines, results leading:

Row | IC50 [µM] | SMILES
23 | 2 to 10 | N#Cc1ccc2ncc(Nc3ccnc(Nc4ccc(OCCCN5CCOCC5)cc4)n3)cc2c1 [Compound 396, 3-{2-[p-(3-morpholinopropoxy)phenylamino]-4-pyrimidinylamino}-6-quinolinecarbonitrile]
24 | 0.5 to 2 | COc1cc(Nc2nccc(Nc3cnc4c(c3)C(C)(C)OC(C)(C)C4)n2)ccc1OCCCN1CCCCC1 [Compound 386, 2-[3-methoxy-4-(3-piperidinopropoxy)phenylamino]-4-(5,5,7,7-tetramethyl-7,8-dihydro-5H-6-oxa-1-azanaphth-3-ylamino)pyrimidine]
25 | ≤ 0.5 | COc1cc(Nc2nccc(Nc3cnc4c(c3)CCCO4)n2)ccc1OCCCN1CCCCC1 [Compound 375, 4-(3,4-dihydro-2H-1-oxa-8-azanaphth-6-ylamino)-2-[3-methoxy-4-(3-piperidinopropoxy)phenylamino]pyrimidine]
26 | ≤ 0.5 | COc1cc(Nc2nccc(Nc3cc4cccc(F)c4[nH]c3=O)n2)cnc1N1CCNC(C(F)F)C1 (stereo not shown) [Compound 233, 3-(2-{6-[3-(difluoromethyl)-1-piperazinyl]-5-methoxy-3-pyridylamino}-4-pyrimidinylamino)-8-fluoro-1,2-dihydro-2-quinolinone]
27 | ≤ 0.5 | COc1cc(N2CCN(C)CC2)ncc1Nc1nccc(Nc2cnc3ccc(Cl)cc3c2)n1 [Compound 486, 4-(6-chloro-3-quinolylamino)-2-[4-methoxy-6-(4-methyl-1-piperazinyl)-3-pyridylamino]pyrimidine]
28 | ≤ 0.5 | COc1cc(Nc2nccc(Nc3cnc4cc(F)c(F)cc4c3)n2)cnc1N1CC(N(C)C)C1 [Compound 48, 4-(6,7-difluoro-3-quinolylamino)-2-{6-[3-(dimethylamino)-1-azetidinyl]-5-methoxy-3-pyridylamino}pyrimidine]
29 | ≤ 0.5 | COc1cc(Nc2nccc(Nc3cc4cccc(F)c4[nH]c3=O)n2)cnc1N1CCN(C)CC1 [Compound 197, 8-fluoro-3-{2-[5-methoxy-6-(4-methyl-1-piperazinyl)-3-pyridylamino]-4-pyrimidinylamino}-1,2-dihydro-2-quinolinone]
30 | ≤ 0.5 | COc1cc(Nc2nccc(Nc3cc4cccc(F)c4[nH]c3=O)n2)cnc1N1CCN(C2COC2)CC1 [Compound 237, 8-fluoro-3-(2-{5-methoxy-6-[4-(3-oxetanyl)-1-piperazinyl]-3-pyridylamino}-4-pyrimidinylamino)-1,2-dihydro-2-quinolinone]
31 | ≤ 0.5 | CCc1ccc2cc(Nc3ccnc(Nc4ccc(OCCCN5CCCCC5)c(OC)c4)n3)cnc2c1 [Compound 72, 4-(7-ethyl-3-quinolylamino)-2-[3-methoxy-4-(3-piperidinopropoxy)phenylamino]pyrimidine]
32 | > 10 | COc1cc(Nc2nccc(Nc3cnc4ccc(Cl)cc4c3)n2)ccc1OC1CN(C)C1 [Compound 293, 4-(6-chloro-3-quinolylamino)-2-[3-methoxy-4-(1-methyl-3-azetidinyloxy)phenylamino] pyrimidine]
33 | ≤ 0.5 | COc1cc(Nc2nccc(Nc3cnc4ccc(Cl)cc4c3)n2)cnc1OC1CCNCC1(F)F (stereo not shown) [Compound 257, 4-(6-chloro-3-quinolylamino)-2-[6-(3,3-difluoro-4-piperidyloxy)-5-methoxy-3-pyridylamino]pyrimidine]
34 | ≤ 0.5 | COc1cc(Nc2nccc(Nc3cnc4ccc(C)cc4c3)n2)ccc1OCCCN1CCCCC1 [Compound 429, 2-[3-methoxy-4-(3-piperidinopropoxy)phenylamino]-4-(6-methyl-3-quinolylamino)pyrimidine]
